Measurements published in the OPERA property sets (Mansouri et al. 2018).

Structure (SMILES)	logP
CS(=O)(=O)Nc1ccc(S(N)(=O)=O)cc1	-0.4
CC(=O)Nc1ccc(S(N)(=O)=O)cc1	-0.04
NC(=O)c1ccc(S(N)(=O)=O)cc1	-0.83
NC(=O)c1cccc(S(N)(=O)=O)c1	-0.84
NS(=O)(=O)c1ccc(-c2ccccc2)cc1	2.24
N#Cc1cccc(S(N)(=O)=O)c1	0.24

Results, then the compound that gave them:

logP	Structure (SMILES)
1.35	NS(=O)(=O)c1cccc(Br)c1
0.53	COc1cccc(S(N)(=O)=O)c1
0.21	CC(=O)c1cccc(S(N)(=O)=O)c1
2.05	CCCCOc1ccc(S(N)(=O)=O)cc1
1.58	NS(=O)(=O)c1cccc(I)c1
2.99	CCCCCCOc1ccc(S(N)(=O)=O)cc1[N+](=O)[O-]
2.06	CCCCOc1cccc(S(N)(=O)=O)c1
